ChEMBL document CHEMBL1146011, “Diaryl substituted pyrrolidinones and pyrrolones as 5-HT2C inhibitors: synthesis and biological evaluation” (Bioorg Med Chem Lett, 2006)
Activity calls are given as the source filed them. No cut-off for these calls is given here.

Legend:
[1] = target: Beta-2 adrenergic receptor (Homo sapiens) (UniProt P07550); assay: Binding affinity to human adrenergic beta-2 receptor
[2] = target: D(2) dopamine receptor (Homo sapiens) (UniProt P14416); assay: Binding affinity to human dopamine D2 receptor
D(3) dopamine receptor = D(3) dopamine receptor (Homo sapiens, UniProt P35462); assay: Binding affinity to human dopamine D3 receptor
[3] = target: T1, Adrenergic receptor alpha-1 (Homo sapiens, UniProt P35348+P25100+P35368); assay: Binding affinity to human adrenergic alpha-1 receptor; type: protein assay
T1 sequence (P35348 whole entry): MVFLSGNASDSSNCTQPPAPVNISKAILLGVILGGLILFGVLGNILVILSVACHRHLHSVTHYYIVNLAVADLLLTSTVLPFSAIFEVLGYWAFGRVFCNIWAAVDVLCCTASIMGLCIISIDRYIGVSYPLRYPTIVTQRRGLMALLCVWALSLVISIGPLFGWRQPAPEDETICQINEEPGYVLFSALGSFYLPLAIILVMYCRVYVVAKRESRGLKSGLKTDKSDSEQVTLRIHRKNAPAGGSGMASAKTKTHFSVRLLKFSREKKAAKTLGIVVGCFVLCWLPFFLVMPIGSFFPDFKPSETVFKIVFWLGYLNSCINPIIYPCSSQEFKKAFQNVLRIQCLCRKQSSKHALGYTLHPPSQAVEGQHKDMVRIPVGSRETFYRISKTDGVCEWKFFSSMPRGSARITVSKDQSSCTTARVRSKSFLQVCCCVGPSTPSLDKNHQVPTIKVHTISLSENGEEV
T1 sequence (P25100 whole entry): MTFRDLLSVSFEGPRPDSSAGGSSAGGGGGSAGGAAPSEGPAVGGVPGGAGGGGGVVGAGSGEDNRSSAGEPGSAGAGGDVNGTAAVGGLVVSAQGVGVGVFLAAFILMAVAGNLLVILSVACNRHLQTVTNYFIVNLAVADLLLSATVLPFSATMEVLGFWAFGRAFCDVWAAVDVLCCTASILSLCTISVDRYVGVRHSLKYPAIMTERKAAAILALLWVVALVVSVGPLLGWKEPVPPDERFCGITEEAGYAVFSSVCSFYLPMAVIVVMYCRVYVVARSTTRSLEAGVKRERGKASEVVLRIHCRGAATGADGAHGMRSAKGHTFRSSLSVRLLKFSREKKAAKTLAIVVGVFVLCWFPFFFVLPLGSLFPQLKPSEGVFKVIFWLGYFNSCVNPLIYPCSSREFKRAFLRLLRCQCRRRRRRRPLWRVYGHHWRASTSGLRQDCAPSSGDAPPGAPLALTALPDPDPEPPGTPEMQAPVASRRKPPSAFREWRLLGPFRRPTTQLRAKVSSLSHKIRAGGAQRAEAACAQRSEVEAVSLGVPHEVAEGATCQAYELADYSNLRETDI
T1 sequence (P35368 whole entry): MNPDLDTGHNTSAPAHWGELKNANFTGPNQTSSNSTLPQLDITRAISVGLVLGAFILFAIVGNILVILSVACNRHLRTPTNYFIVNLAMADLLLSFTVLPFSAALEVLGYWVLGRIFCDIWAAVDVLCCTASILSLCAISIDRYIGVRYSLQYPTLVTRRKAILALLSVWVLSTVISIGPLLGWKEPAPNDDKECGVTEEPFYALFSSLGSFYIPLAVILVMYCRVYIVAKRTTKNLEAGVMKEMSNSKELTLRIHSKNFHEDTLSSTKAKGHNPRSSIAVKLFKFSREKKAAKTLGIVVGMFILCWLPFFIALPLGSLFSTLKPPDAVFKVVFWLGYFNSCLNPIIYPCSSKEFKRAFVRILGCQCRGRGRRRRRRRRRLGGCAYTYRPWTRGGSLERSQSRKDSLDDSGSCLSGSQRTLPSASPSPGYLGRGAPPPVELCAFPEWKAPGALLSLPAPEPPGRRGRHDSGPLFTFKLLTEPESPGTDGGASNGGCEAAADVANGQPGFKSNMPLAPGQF

[4] = Plasma clearance in orally dosed rat; type: ADME, organism-based; settings: po
Rattus norvegicus [5] = assay: Volume of distribution in orally dosed rat; type: ADME, organism-based; settings: in vivo, po
[6] = Half life in orally dosed rat; type: ADME, organism-based; settings: in vivo, po
[7] = Bioavailability in orally dosed rat; type: ADME, organism-based; settings: in vivo, po
[8] = Ratio of drug level in brain against plasma in orally dosed rat; type: ADME, organism-based; settings: po, read-out: BPR
Rattus norvegicus [9] = assay: Drug level in orally dosed rat brain; type: ADME, organism-based; settings: in vivo, po
[10] = target: 5-hydroxytryptamine receptor 7 (Homo sapiens, UniProt P34969); assay: Binding affinity to human 5HT7 receptor
[11] = target: 5-hydroxytryptamine receptor 6 (Homo sapiens, UniProt P50406); assay: Binding affinity to human 5HT6 receptor
[12] = target: T2, 5-hydroxytryptamine receptor 2C (Homo sapiens, UniProt P28335); assay: Binding affinity to human 5HT2C receptor
T2 sequence (P28335 whole entry): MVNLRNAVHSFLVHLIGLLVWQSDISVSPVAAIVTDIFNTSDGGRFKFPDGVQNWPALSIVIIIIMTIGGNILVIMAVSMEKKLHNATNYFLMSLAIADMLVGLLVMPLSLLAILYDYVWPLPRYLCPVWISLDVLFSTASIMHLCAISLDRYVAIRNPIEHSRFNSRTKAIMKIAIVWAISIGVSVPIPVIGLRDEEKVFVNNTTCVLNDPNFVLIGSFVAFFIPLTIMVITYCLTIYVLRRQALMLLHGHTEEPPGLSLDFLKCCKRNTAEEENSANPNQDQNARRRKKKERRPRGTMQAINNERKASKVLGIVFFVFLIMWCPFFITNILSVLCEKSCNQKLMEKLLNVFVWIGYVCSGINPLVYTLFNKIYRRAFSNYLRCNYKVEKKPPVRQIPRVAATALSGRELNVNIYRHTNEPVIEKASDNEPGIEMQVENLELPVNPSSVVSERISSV

[13] = target: 5-hydroxytryptamine receptor 2A (Homo sapiens, UniProt P28223); assay: Binding affinity to human 5HT2A receptor
[14] = target: 5-hydroxytryptamine receptor 2B (Homo sapiens, UniProt P41595); assay: Binding affinity to human 5HT2B receptor
[15] = target: T3, 5-hydroxytryptamine receptor 1A (Homo sapiens, UniProt P08908); assay: Binding affinity to human 5HT1A receptor
T3 sequence (P08908 whole entry): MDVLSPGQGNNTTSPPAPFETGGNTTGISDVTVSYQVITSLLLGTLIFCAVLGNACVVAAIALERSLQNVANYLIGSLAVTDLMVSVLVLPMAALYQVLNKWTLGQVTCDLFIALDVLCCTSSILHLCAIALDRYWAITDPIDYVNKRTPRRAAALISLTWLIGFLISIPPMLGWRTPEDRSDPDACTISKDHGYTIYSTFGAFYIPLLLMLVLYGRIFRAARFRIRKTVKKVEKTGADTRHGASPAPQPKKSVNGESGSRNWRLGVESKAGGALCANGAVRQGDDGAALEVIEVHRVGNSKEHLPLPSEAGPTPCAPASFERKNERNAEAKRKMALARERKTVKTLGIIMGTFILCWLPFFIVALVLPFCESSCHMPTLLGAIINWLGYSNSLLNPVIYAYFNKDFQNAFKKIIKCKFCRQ

[16] = target: 5-hydroxytryptamine receptor 1B (Homo sapiens, UniProt P28222); assay: Binding affinity to human 5HT1B receptor
[17] = target: 5-hydroxytryptamine receptor 1D (Homo sapiens, UniProt P28221); assay: Binding affinity to human 5HT1D receptor
5-hydroxytryptamine receptor 1D, sequence (P28221 whole entry): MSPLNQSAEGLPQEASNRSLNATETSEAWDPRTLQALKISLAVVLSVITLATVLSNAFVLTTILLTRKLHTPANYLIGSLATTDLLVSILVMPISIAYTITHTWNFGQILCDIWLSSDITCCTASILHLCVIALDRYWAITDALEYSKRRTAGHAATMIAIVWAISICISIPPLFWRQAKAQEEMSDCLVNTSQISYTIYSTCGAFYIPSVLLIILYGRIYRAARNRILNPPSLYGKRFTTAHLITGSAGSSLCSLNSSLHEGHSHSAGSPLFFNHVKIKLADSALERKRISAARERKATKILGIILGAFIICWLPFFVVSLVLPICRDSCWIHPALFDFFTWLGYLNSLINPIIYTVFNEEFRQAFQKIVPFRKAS

5-hydroxytryptamine receptor 1B, sequence (P28222 whole entry): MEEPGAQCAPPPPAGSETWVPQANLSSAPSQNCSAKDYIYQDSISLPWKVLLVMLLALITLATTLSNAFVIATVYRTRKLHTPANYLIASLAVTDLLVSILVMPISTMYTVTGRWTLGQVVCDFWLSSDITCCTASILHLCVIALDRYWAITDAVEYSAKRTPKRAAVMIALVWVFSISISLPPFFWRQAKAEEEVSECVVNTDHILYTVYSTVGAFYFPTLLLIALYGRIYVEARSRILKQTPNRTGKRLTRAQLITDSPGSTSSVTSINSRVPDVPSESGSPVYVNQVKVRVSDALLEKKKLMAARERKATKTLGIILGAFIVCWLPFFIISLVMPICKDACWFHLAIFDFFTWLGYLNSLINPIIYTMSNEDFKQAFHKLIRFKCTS
D(2) dopamine receptor (Homo sapiens), sequence (P14416 whole entry): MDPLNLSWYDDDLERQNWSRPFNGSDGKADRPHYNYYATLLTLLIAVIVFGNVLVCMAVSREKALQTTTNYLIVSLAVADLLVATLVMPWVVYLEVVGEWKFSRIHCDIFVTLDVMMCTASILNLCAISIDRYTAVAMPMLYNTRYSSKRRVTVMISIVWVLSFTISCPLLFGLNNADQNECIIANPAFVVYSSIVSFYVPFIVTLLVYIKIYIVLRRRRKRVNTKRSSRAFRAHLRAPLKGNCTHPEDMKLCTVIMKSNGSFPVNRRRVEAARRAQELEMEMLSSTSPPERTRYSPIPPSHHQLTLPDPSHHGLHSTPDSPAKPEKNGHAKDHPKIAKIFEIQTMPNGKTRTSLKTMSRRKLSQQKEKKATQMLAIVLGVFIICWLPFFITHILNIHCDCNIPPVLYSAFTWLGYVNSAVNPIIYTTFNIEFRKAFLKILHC
D(3) dopamine receptor, sequence (P35462 whole entry): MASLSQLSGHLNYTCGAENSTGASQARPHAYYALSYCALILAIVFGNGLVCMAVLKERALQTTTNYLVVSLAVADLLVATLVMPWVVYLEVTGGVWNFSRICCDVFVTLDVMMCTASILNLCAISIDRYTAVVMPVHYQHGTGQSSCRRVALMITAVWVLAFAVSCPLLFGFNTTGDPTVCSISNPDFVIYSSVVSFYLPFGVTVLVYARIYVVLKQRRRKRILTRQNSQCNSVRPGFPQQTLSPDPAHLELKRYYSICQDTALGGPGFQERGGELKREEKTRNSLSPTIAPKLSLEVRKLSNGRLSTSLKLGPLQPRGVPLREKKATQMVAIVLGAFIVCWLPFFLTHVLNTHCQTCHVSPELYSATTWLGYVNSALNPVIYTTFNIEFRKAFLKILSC
5-hydroxytryptamine receptor 6, sequence (P50406 whole entry): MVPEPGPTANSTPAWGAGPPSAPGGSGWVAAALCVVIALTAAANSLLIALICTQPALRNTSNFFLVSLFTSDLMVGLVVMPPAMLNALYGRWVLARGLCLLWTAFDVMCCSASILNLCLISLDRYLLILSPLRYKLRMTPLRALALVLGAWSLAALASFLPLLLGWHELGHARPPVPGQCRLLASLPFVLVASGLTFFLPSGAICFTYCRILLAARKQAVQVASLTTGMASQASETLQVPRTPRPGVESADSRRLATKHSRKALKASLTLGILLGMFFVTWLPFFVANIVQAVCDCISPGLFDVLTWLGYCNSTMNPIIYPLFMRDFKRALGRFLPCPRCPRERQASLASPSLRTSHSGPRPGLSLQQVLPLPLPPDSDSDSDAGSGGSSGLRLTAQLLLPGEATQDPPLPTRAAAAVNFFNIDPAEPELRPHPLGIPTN
5-hydroxytryptamine receptor 2B, sequence (P41595 whole entry): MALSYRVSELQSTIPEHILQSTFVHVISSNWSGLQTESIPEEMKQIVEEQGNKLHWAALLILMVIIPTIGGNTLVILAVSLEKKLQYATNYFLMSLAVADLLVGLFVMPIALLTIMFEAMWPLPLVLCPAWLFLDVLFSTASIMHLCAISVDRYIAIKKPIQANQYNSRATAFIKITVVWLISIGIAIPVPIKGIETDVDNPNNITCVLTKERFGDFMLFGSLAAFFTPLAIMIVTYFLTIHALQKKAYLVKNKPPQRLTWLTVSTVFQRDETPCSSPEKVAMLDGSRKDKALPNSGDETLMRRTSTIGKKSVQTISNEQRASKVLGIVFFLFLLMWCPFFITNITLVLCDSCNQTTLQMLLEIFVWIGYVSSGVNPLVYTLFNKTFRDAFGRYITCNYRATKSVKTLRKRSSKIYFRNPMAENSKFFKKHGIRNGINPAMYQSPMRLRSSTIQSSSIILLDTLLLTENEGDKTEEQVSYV
Beta-2 adrenergic receptor (Homo sapiens), sequence (P07550 whole entry, looked up): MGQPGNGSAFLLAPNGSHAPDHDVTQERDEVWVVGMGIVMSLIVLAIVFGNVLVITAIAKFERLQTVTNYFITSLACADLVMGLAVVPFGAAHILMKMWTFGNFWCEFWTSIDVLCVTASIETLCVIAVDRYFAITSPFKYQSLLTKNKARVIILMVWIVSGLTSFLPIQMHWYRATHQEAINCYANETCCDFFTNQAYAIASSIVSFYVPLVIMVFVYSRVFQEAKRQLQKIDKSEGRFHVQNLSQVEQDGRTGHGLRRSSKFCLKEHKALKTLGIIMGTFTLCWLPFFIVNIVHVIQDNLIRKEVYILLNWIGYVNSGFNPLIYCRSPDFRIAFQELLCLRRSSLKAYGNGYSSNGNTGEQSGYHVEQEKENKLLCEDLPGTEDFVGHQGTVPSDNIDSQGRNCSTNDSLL
5-hydroxytryptamine receptor 2A, sequence (P28223 whole entry): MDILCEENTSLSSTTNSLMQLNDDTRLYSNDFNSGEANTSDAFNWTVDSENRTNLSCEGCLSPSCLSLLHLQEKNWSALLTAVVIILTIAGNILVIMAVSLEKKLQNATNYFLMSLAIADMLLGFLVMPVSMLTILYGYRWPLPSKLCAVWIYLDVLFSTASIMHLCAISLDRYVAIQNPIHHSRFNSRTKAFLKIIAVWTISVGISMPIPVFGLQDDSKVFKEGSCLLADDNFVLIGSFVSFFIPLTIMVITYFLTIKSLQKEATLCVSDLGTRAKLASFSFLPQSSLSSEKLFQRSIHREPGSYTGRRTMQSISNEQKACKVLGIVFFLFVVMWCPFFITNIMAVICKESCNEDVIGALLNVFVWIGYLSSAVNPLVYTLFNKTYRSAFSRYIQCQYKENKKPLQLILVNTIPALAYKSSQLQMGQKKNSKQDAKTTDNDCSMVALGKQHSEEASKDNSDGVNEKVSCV
5-hydroxytryptamine receptor 7, sequence (P34969 whole entry): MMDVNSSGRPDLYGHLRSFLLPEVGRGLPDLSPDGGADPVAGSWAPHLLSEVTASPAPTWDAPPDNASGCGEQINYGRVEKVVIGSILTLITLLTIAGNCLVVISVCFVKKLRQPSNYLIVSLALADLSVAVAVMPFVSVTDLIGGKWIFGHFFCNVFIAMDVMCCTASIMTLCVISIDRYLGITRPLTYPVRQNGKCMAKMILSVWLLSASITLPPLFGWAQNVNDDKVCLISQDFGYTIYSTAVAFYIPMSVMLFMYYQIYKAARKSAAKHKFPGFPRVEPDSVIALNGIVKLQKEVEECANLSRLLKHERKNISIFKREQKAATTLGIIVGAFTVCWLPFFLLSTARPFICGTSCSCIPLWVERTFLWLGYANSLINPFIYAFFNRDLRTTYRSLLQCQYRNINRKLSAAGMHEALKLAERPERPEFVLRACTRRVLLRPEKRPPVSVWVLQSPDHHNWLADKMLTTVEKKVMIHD

Activity [1]: inactive
Activity [2]: inactive
Ki (D(3) dopamine receptor): 457 nM
Log Ki [3]: -5.74
CL/F [4]: 59 mL/min/kg
Vdss (Rattus norvegicus [5]): 10.7 L
half-life [6]: 2.8 h
bioavailability [7]: 11%
Kp [8]: 3.9
Drug uptake (Rattus norvegicus [9]): 320 ng/g
Ki [10]: > 3160 nM
Ki [11]: > 3160 nM
Ki [12]: 0.794 nM
Ki [13]: 631 nM
Ki [14]: 631 nM
Ki [15]: > 3160 nM
Ki [16]: > 3160 nM
Ki [17]: > 3160 nM
Compound: COc1ccc(N2CC=C(c3ccc(Cl)c(Cl)c3)C2=O)cc1OCCN1CCCCC1
